Assay results: patent US9526681B2, “Compositions and methods for treating dental caries” (Colgate-Palmolive Company, priority 2012, dated 2016)

Tested on: salivary sediment (oral cavity bacteria)
Assay: Ammonia production by salivary sediment incubated with sucrose (diagnostic ammonia assay kit)
Format: cell-based
Conditions: 0.1% sucrose, 37 degrees Celsius, 30 minutes; for ammonia production, Mean: mean of three trials
Method: In order to investigate the effects of arginine alone, mixtures of arginine and bisabolol and bisabolol alone, on the production of ammonia in the present or oral bacterium the following procedures are carried out. Stimulated whole saliva is collected on ice and centrifuged for 15 minutes at 4000 rpm to obtain a pellet and salivary supernatant. The pellet, which is termed the salivary sediment, contains a representative array of the oral microbes found in the oral cavity. This pellet is washed twice in cold filter sterilized deionized water by centrifugation for 10 minutes at 4000 rpm.
The salivary sediment is then diluted to 50% with cold filter sterilized deionized water. Stock solutions of 1% arginine and 1% sucrose in filter sterilized deionized water are made, and a stock solution of 1% bisabolol in ethanol is also made. Reaction mixtures tested contain 16.7% final concentration salivary sediment, 0.1% final concentration sucrose and 0.0871% final concentration arginine. The control reaction mixture contains only salivary sediment, sucrose and arginine in the salivary supernatant base. The test solutions have a final concentration of 0.05 and 0.1 bisabolol, respectively. The reaction mixtures are then incubated at 37 degrees Celsius for 30 minutes with mild agitation before determining ammonia production. A standard diagnostic ammonia assay kit is used to quantify ammonia produced.
Table 1 (below) describes the results of the procedures described above, wherein the ammonia production is measured in terms of nanomole per milligram (nm/mg).
Column A in Table 1 describes data collected for three trials of L-arginine (Control) reaction mixtures that contain salivary sediment and salivary supernatant with final concentrations of 0.1% sucrose and 0.0871% L-arginine. Column B in Table 1 describes data collected for three trials of 0.05% bisabolol plus arginine reaction mixtures that contain salivary sediment and salivary supernatant with final concentrations of 0.1% sucrose, 0.05% bisabolol and 0.0871% L-arginine. Column C in Table 1 describes data collected for three trials of 0.05% bisabolol reaction mixtures that contain salivary sediment and salivary supernatant with final concentrations of 0.1% sucrose and 0.05% bisabolol. Column D in Table 1 describes data collected for three trials of 0.1% bisabolol plus arginine reaction mixtures that contain salivary sediment and salivary supernatant with final concentrations of 0.1% sucrose, 0.1% Bisabolol and 0.0871% L-arginine. Column E in Table 1 describes data collected for three trials of 0.1% bisabolol reaction mixtures that contain salivary sediment and salivary supernatant with final concentrations of 0.1% sucrose and 0.1% bisabolol.

[1] = 0.0871% L-arginine, no bisabolol, 16.7% salivary sediment
[2] = 0.05% bisabolol (with 0.0871% L-arginine in the combination), salivary sediment
[3] = 0.1% bisabolol (with 0.0871% L-arginine in the combination), salivary sediment

N=C(N)NCCC[C@H](N)C(=O)O [Arginine, L-arginine, reference compound]
ammonia production, Trial 1 [1]: 1532.40 nm/mg | ammonia production, Trial 2 [1]: 1799.88 nm/mg | ammonia production, Trial 3 [1]: 986.31 nm/mg | ammonia production, Mean [1]: 1439.53 nm/mg

CC(C)=CCC[C@](C)(O)C1CC=C(C)CC1 (stereo partly drawn) [Bisabolol, bisabolol]
ammonia production, Trial 1 [2]: 200.61 nm/mg | ammonia production, Trial 2 [2]: 27.86 nm/mg | ammonia production, Trial 3 [2]: 66.87 nm/mg | ammonia production, Trial 1 [3]: 133.74 nm/mg | ammonia production, Trial 2 [3]: 562.81 nm/mg | ammonia production, Trial 3 [3]: 228.47 nm/mg | ammonia production, Mean [2]: 98.45 nm/mg | ammonia production, Mean [3]: 308.34 nm/mg
